Experimental data as given in US9814697B2, “Composition for nonalcoholic fatty liver disease (NAFLD)” (Cadila Healthcare Limited, priority 2013, dated 2017).

Assays:
[1] = system: subjects with biopsy proven NASH; experiment: Prospective, multi-centric, open-label, single arm study in Non-alcoholic steatohepatitis: efficacy parameters; assay type: in vivo, human
Procedure: (§1) Title of the Study—“A prospective, multi-centric, open-label, single arm study to evaluate the safety and efficacy of 4 mg of magnesium salt of compound of formula (I) wherein R is -SMe in a pharmaceutical composition as described above in Non-alcoholic steatohepatitis.”
(§2) To evaluate the safety and efficacy of 4 mg of magnesium salt of compound of formula (I) wherein R is -SMe in Non-alcoholic steatohepatitis (NASH).
(§3) • Primary Efficacy (Time Frame 6 and 12 Weeks): • 1. Change in alanine aminotransferase (ALT) from baseline • Secondary Efficacy (Time Frame 6 and 12 Weeks): • Sustained reduction in ALT level. • C-peptide test for homeostasis model assessment (HOMA) beta and HOMA IR • Triglyceride (TG) Criteria for Safety: • 1. General and Systemic Clinical Examination: Cardiovascular system (CVS), respiratory system (RS), gastro-intestinal system (GIS), central nervous system (CNS) etc. • 2. Laboratory Investigations: Complete blood count (CBC), aspartate aminotransferase(AST), ALT, alkaline phosphatase (ALP), serum bilirubin, γ-glutamyl transpeptidase (GGT), Serum proteins, blood urea nitrogen (BUN), Serum creatinine, creatinine phosphokinase (CPK), fasting plasma glucose (FPG). • 3. Frequency and severity of adverse events (AEs) for all subjects enrolled were recorded. All AEs, were classified using • causality • severity • seriousness Methodology:
(§4) It is an interventional, single arm, safety and efficacy study to explore effect of magnesium salt of compound of formula (I) wherein R is -SMe suitably formulated as described above, on NASH.
Subjects was diagnosed by biopsy as suffering from NASH in last one year and willing to participate in study were invited for screening programme for inclusion in the study.
(§5) All subjects were given suitable formulation of magnesium salt of compound of formula (I) wherein R is -SMe 4 mg for 12 weeks. Lifestyle modification was continued as before the study. Patient was monitored for safety and efficacy of magnesium salt of compound of formula (I) wherein R is -SMe.
(§6) After Clinical evaluations, all baseline safety and efficacy parameters were recorded as per Table (I) given below. All laboratory investigations were carried out after overnight fasting.
(§7) Safety and efficacy parameters were assessed as per Table (I) given below.
Subjects were clinically examined and safety and efficacy parameters were assessed as per Table (I) given below. […]

[2] = system: subjects with biopsy proven NASH; experiment: Prospective, multi-centric, open-label, single arm study in Non-alcoholic steatohepatitis: safety and tolerability; assay type: in vivo, human
Procedure: as §1, §2, §3, §4, §5, §6
Subjects were clinically examined and given the study medications for four weeks and also safety parameters were assessed as per Table (I)given below.
as §7
Subjects were clinically examined and safety and efficacy parameters were assessed as per Table (I) given below.
If further investigations are required in case of any AE, investigator will be advised to assess the AE and take necessary action, if required. Subjects will be advised to contact the investigator for any complaints within next two weeks. […]

[3] = 4 mg, Safety Population, at Week 3 and at Week 4 (so in the source), FIG. 2
[4] = 4 mg, at 6 and 12 weeks, PP analysis, FIG. 3
[5] = 4 mg, during the study, mild, none considered clinically significant by the investigator

For `CCO[C@@H](Cc1ccc(OCCn2c(C)ccc2-c2ccc(SC)cc2)cc1)C(=O)[O-].CCO[C@@H](Cc1ccc(OCCn2c(C)ccc2-c2ccc(SC)cc2)cc1)C(=O)[O-].[Mg+2]`, which “Change in ALT levels from baseline” value ([1]; 4 mg for 12 weeks, NASH patients, PP population, visit 3 (week 6) and visit 4 (week 12), FIG. 1) is on record?
The value was “statistically significant reduction”.

And the “Patients with sustained reduction in ALT levels” value ([1]; 4 mg, PP population, visit 3 (week 6))?
Its value is 63.16 % of patients.

And the “Patients with sustained reduction in ALT levels” value ([1]; 4 mg, PP population, visit 4 (week 12))?
Its value is 78.95 % of patients.

What about the “Change in Aspartate Transaminase” value [1, 3] of the same molecule?
Its value is “statistical significant decrease”.

What about the “Change in alkaline phosphatase” value [1, 3] of the same molecule?
Its value is “statistical significant decrease”.

What about the “Change in gamma-glutamyl transpeptidase” value [1, 3] of the same molecule?
The value was “statistical significant decrease”.

And the “Change in C peptide levels” value [1, 4]?
Its value is “non-significant change”.

What about the “Change in HOMA-Beta cell function” value [1, 4] of the same molecule?
The value was “non-statistically significant reduction”.

And the “Change in HOMA-Insulin Resistance” value [1, 4]?
Its value is “non-statistically significant reduction”.

What about the “Decrease in triglyceride as compared to baseline” value ([1]; 4 mg, patients with baseline TG<150 mg/dl, week 12, PP population, FIG. 4) of the same molecule?
Its value is “not statistically significant”.

What about the “Decrease in serum triglycerides as compared to baseline” value ([1]; 4 mg, patients with baseline TG≧150 mg/dl, week 6 and 12, PP population, FIG. 4) of the same molecule?
The value was “not statistically significant”.

What about the “Overall safety and tolerability” value ([2]; 4 mg for 12 weeks, NASH patients) of the same molecule?
The value was “safe and well tolerated”.

What about the “Changes from baseline in various laboratory parameters” value ([2]; 4 mg treatment arm) of the same molecule?
The value was “no persistent changes from baseline”.

And the “Deaths or SAEs reported” value ([2]; 4 mg treatment arm)?
The value was “no deaths or SAEs”.

What about the “Overall incidence of AEs” value ([2]; 4 mg treatment arm) of the same molecule?
Its value is “Nil”.

And the “Change in weight compared to baseline” value ([2]; 4 mg, NASH patients, visit 2, 3 and 4)?
The value was “no significant change in weight”.

And the “Events of raised CPK value” [2, 5]?
The value was “five”.

And the “Events of raised creatinine” value [2, 5]?
Its value is “Few events”.
